Laboratory results reported in patent publication US4499104A, “Imidazole compound, the process for its preparation, and therapeutically active compositions containing same” (priority 1976, dated 1985).

Experiments:
[1] = Pulminary edema by carrageen (Sancilio method, pleural exudate); type: in vivo, Wistar-Roux-Ocefa rats; conditions: for ml of exudate: 30 mg/Kg, pleural cavity
Method: Using the Sancilio method (Sancilio F. L., J. Pharmacol. Exptl. Therap., 168, 199 (1969); Sancilio L. F. Rodrigues R., Proc. Soc. Exptl. Biol. Med., 123, 707 (1969); Sancilio L. F. Lawrence R., Proc. Soc. Exptl. Biol. Med., 127, 597 (1968), pulminary irritation was induced in Wistar-Roux-Ocefa rats and the capacity of chlorophenazole and other drugs to prevent production of pleural exudate was measured. 5 ml of a 0.025% carrageen solution and 0.075% Evans blue were injected into the pleurea.
The action of chlorophenazole, mepyrazole and phenylbutazone were evaluated from the quantity of exudate present in the pleural cavity after 1 and 6 hours.

[2] = Edema by carrageen (rat paw), antiedematous activity; type: in vivo, Rats of the Wistar-Roux-Ocefa stock; conditions: for IT (DL50/DE50): DL50/DE50, os; for ED50: Rattus norvegicus, po, os, probits method and graphically, read-out: DE50 (the source's name)
Method: (§1) A 1% physiological solution of carrageen was used. Rats of the Wistar-Roux-Ocefa stock having a weight of 150±30 g were used. The drugs were suspended in 1% carboxymethylcellulose or dissolved in distilled water and administered orally one hour before the inflammatory agent in a volume of 0.5 ml/100 g. The carrageen was adminstered subcutaneously in the subplanetary region of one of the rear paws. The volume of the paw was measured platysmagraphically initially and then after 1.5 hour, 3 hours and 5 hours after administering the carrageen. One inflammation unit was defined as the displacement of 0.01 ml of Hg.
(§2) The edema was evaluated as the difference in volume of the rear paw before and after the carrageen. The DE 50 was calculated by the probits method and graphically. The comparison drugs used were phenylbutazone and niflumic acid.

rats = test: Chronic toxicity, first experiment (60 days); type: in vivo, Wistar-Ocefa rats; conditions: rat, in vivo
Method: Wistar-Ocefa rats of both sexes weighing 70-90 g were used, divided into groups of 30 animals (15 males and 15 females) to a total of […].
Chlorophenazole and phenylbutazone (reference drug) were administered orally for a period of 60 days in doses of 30-60 mg/kg of chlorophenazole and 8-160 mg/kg of phenylbutazone (first experiment) and for a period of 5 months in doses of 6-12 mg/kg of chlorophenazole and 16 mg/kg of phenylbutazone (second experiment).
The following parameters were determined periodically: behavior, general state, food consumption, body weight, red blood cell number, white blood cell number, leucocite formula, hemoglobin, hematocrit, globular value, total proteins, glycemia, azotemia, cholesterol, total lipids, triglycerides, creatinine, GOT, GPT, urine analysis. At the end of the experiment the animals were sacrificed, their general state was observed, the following organs were weighed: liver, spleen, kidneys, supranenes, ovary and testicles, lungs, heart, stomach.

in vivo = conditions: rat, po
[3] = Edema by carrageen in normal and adrenoprival (suprarenectomised) rats; type: in vivo, rat; parameters: Edema by carrageen: unit not given beside the values; conditions: adrenoprival rats
Method: as §1, §2
To evaluate if the activity of the chlorophenazole on edema by carrageen was influenced by stimulation of the suprarenes, experiments were carried out with suprarenectomised rats. Normal rats were also compared with falsely operated rats to evaluate the influence of the operational trauma.

[4] = Action on sleep by barbiturates; type: in vivo, Wistar-Ocefa rats; conditions: pentobarbital sodium 40 mg/kg alone
Method: […] Loss of the redressment reflex was taken to indicate commencement of sleep. The chlorophenazone was administered orally with a dose of 1/10 of the DL50. The induction time and the duration of sleep were measured.

| Structure (SMILES) | ml of exudate [1] [mL] | Δ Volume of the inflamed paw ([2]; 10 mg/kg oral, 1.5 hours) [UPI] | Δ Volume of the inflamed paw ([2]; 10 mg/kg oral, 3 hours) [UPI] | Δ Volume of the inflamed paw ([2]; 10 mg/kg oral, 5 hours) [UPI] | Δ Volume of the inflamed paw ([2]; 20 mg/kg oral, 1.5 hours) [UPI] | Δ Volume of the inflamed paw ([2]; 20 mg/kg oral, 3 hours) [UPI] | Δ Volume of the inflamed paw ([2]; 20 mg/kg oral, 5 hours) [UPI] | Δ Volume of the inflamed paw ([2]; 40 mg/kg oral, 1.5 hours) [UPI] | Δ Volume of the inflamed paw ([2]; 40 mg/kg oral, 3 hours) [UPI] | Δ Volume of the inflamed paw ([2]; 40 mg/kg oral, 5 hours) [UPI] | IT (DL50/DE50) [2] | ED50 [2] [mg/kg] | LD50 (in vivo) [mg/kg] | also measured |
| --- | --- | --- | --- | --- | --- | --- | --- | --- | --- | --- | --- | --- | --- | --- |
| COc1cc(C)nc(-n2nc(C)cc2OC)n1 [Mepyrazole] | 4.38 |  |  |  |  |  |  |  |  |  |  |  |  |  |
| CCCCC1C(=O)N(c2ccccc2)N(c2ccccc2)C1=O [Phenylbutazone] | 3.12 | 28 | 65 | 88 | 26 | 59 | 74 | 24 | 51 | 73 | 23.40 | 15 | 351 | activity on pleural exudate ([1]; exudate after 1 and 6 hours): significantly active; cholesterol (rats): the same for cholesterol at the larger doses; stomach appearance (rats): contract and pale |
| O=C(O)c1cccnc1Nc1cccc(C(F)(F)F)c1 [Niflumic acid] |  | 25 | 51 | 80 | 20 | 35 | 56 | 18 | 33 | 49 | 11.40 | 7 | 30 | Edema by carrageen ([3]; 10 mg/kg, 1.5 hours): 25; Edema by carrageen ([3]; 10 mg/kg, 3 hours): 34; Edema by carrageen ([3]; 20 mg/kg, 1.5 hours): 20; Edema by carrageen ([3]; 20 mg/kg, 3 hours): 24; Edema by carrageen ([3]; 40 mg/kg, 1.5 hours): 19; Edema by carrageen ([3]; 40 mg/kg, 3 hours): 30 |
| CCCC(C)C1(CC)C(=O)NC(=O)NC1=O (stereo not shown) [Pentobarbital sodium, reference compound] |  |  |  |  |  |  |  |  |  |  |  |  |  | Induction time [4]: 4.4 min; Sleeping time [4]: 49.1 min |
